Test results taken from patent US20240132457A1, “3-(2-(BENZO[D]THIAZOL-2-YL)-2-(PHENYLSUFONAMIDO)ETHYL)BENZIMIDAMIDE DERIVATIVES AND RELATED COMPOUNDS AS TMPRSS2 INHIBITORS FOR THE TREATMENT OF VIRAL INFECTIONS” (INTEGERBIO, INC., priority 2020, published 2024).

Target: T1, Recombinant human TMPRSS2 protein (106-492 aa) (Homo sapiens, UniProt O15393)
T1 construct: Human TMPRSS2-(AA 106-492)-; purchased CusaBio CSB-YP023924HU; host or cells: yeast
Assay: TMPRSS2 Assay 1 (Example 41), fluorogenic Boc-Gln-Ala-Arg-AMC cleavage
Format: biochemical
Details: TMPRSS2 10 nM, substrate 25 μM, 20 min pre-incubation
Experimental: The enzyme (TMPRSS2, CusaBio cat #CSB-YP023924HU. Recombinant human TMPRSS2 protein (106-492 aa)N-terminal 6×His-tagged (“6×His” disclosed as SEQ ID NO: 4), expressed in yeast cells; MW=44.8 kDa, lyophilized from 20 mM: Tris HCl, 0.5 M NaCl, 6% Trehalose, pH 8.0, >85% purity as determined by SDS-PAGE. Uniprot: 015393; 10 nM in the reaction) and substrate (Boc-Gln-Ala-Arg-AMC; Enzo Cat #BML-P237-0005, MW=581.76 Da. 25 μM in the reaction) were prepared in Reaction Buffer (50 mM Tris-HCl pH 8, 150 mM NaCl, 0.005% Brij35, 1% DMSO). After the enzyme solution was delivered into the reaction well, the compounds in DMSO were delivered to the reaction mixture by using Acoustic Technology (Echo 550, LabCyte Inc. Sunnyvale, CA) in nanoliter range. After 20 min pre-incubation, the substrate solution was delivered into the reaction well to initiate the reaction. The enzyme activities were monitored every 5 min as a time-course measurement of the increase in fluorescence signal from fluorescently-labeled peptide substrate for 120 min. at room temperature. Data was analyzed by taking slope*(signal/time) of linear portion of measurement. The slope was calculated using Excel, and the curve fits were performed using Prism software.

T1 sequence (O15393 106-492): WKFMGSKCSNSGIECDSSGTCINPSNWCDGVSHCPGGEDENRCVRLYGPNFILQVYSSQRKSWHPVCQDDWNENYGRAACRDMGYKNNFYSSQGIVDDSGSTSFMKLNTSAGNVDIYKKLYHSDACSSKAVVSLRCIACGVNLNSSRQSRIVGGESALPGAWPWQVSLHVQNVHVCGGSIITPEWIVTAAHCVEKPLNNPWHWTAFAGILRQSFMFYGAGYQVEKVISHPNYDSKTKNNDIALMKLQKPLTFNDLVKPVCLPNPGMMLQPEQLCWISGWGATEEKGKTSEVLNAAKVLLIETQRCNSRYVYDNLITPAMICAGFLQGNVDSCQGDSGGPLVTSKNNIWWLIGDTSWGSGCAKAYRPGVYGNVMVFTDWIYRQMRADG

| IC50 [µM] | Structure (SMILES) |
| --- | --- |
| < 10 | Cc1ccc2sc(C(Cc3cccc(C(=N)N)c3)NS(=O)(=O)c3ccccc3)nc2c1 (stereo not drawn) [Compound 9, 3-[2-Benzenesulfonamido-2-(5-methyl-1,3-benzothiazol-2-yl)ethyl]benzene-1-carboximidamide] |
| < 10 | N=C(N)c1cccc(CC(NS(=O)(=O)c2ccccc2)c2nc3cccc(Cl)c3s2)c1 (stereo not drawn) [Compound 13, 3-[2-Benzenesulfonamido-2-(7-chloro-1,3-benzothiazol-2-yl)ethyl]benzene-1-carboximidamide] |
| > 10 | N=C(N)c1cccc(CC(NS(=O)(=O)c2ccccc2)c2nc3ccc(C(F)(F)F)cc3s2)c1 (single isomer, unassigned) [14 (enantiomer 1)] |
| < 10 | N=C(N)c1cccc(CC(NS(=O)(=O)c2cccc(-c3ccc(Cl)cc3Cl)c2)c2nccs2)c1 (single isomer, unassigned) [5 (Isomer 1, batch 1), 3-[2-{2′,4′-Dichloro-[1,1′-biphenyl]-3-sulfonamido}-2-(1,3-thiazol-2-yl)ethyl]benzene-1-carboximidamide] |
| < 10 | N=C(N)c1cccc(CC(NS(=O)(=O)c2ccccc2)c2nc3cccc(Cl)c3s2)c1 (single isomer, unassigned) [13 (enantiomer 2), 3-[2-Benzenesulfonamido-2-(7-chloro-1,3-benzothiazol-2-yl)ethyl]benzene-1-carboximidamide] |
| > 10 | N=C(N)c1cccc(CC(NS(=O)(=O)c2ccccc2)c2nc3c(s2)CNCC3)c1 (stereo not drawn) [Compound 10, 3-(2-Benzenesulfonamido-2-{4H,5H,6H,7H-[1,3]thiazolo[5,4-c]pyridin-2-yl}ethyl)benzene-1-carboximidamide] |
| > 10 | Cn1cnnc1[C@H](Cc1cccc(C(=N)N)c1)NS(=O)(=O)c1cccc(-c2ccc(Cl)cc2Cl)c1 [Compound 6, 3-[(2S)-2-{2′,4′-Dichloro-[1,1′-biphenyl]-3-sulfonamido}-2-(4-methyl-4H-1,2,4-triazol-3-yl)ethyl]benzene-1-carboximidamide] |
| < 10 | N=C(N)c1cccc(CC(NS(=O)(=O)c2ccccc2)c2nc3cc(C(F)(F)F)ccc3s2)c1 (single isomer, unassigned) [12 (enantiomer 2), 3-{2-Benzenesulfonamido-2-[5-(trifluoromethyl)-1,3-benzothiazol-2-yl]ethyl}benzene-1-carboximidamide] |
| < 10 | N=C(N)c1cccc(CC(NS(=O)(=O)c2cccc(-c3ccc(Cl)cc3Cl)c2)c2nccs2)c1 (single isomer, unassigned) [Compound 5 (Isomer 3), 3-[2-{2′,4′-Dichloro-[1,1′-biphenyl]-3-sulfonamido}-2-(1,3-thiazol-2-yl)ethyl]benzene-1-carboximidamide] |
| < 10 | N=C(N)c1cccc(CC(NS(=O)(=O)c2ccccc2)c2nc3cc(C(F)(F)F)ccc3s2)c1 (stereo not drawn) [Compound 12, 3-{2-Benzenesulfonamido-2-[5-(trifluoromethyl)-1,3-benzothiazol-2-yl]ethyl}benzene-1-carboximidamide] |
| < 10 | N=C(N)c1cccc(C[C@H](NS(=O)(=O)c2ccccc2)c2nc3ccc(C(F)(F)F)cc3s2)c1 [14 (batch 1), 3-[(2S)-2-Benzenesulfonamido-2-[6-(trifluoromethyl)-1,3-benzothiazol-2-yl]ethyl]benzene-1-carboximidamide] |
| < 10 | CN1CCN(c2cccc3nc(C(Cc4cccc(C(=N)N)c4)NS(=O)(=O)c4ccccc4)sc23)CC1 (stereo not drawn) [Compound 15, 3-{2-Benzenesulfonamido-2-[7-(4-methylpiperazin-1-yl)-1,3-benzothiazol-2-yl]ethyl}benzene-1-carboximidamide] |
| > 10 | N=C(N)c1cccc(CC(NS(=O)(=O)c2ccccc2)c2nc3cccc(Cl)c3s2)c1 (single isomer, unassigned) [13 (enantiomer 1), 3-[2-Benzenesulfonamido-2-(7-chloro-1,3-benzothiazol-2-yl)ethyl]benzene-1-carboximidamide] |
| < 10 | N=C(N)c1cccc(CC(NS(=O)(=O)c2ccccc2)c2nc3ccc(C(F)(F)F)cc3s2)c1 (single isomer, unassigned) [14 (enantiomer 2)] |
| > 10 | N=C(N)c1cccc(CC(NS(=O)(=O)c2ccccc2)c2ncc[nH]2)c1 (stereo not drawn) [Compound 7, 2-[2-{3-[Amino(iminiumyl)methyl]phenyl}-1-benzenesulfonamidoethyl]-1H-imidazol-3-ium dichloride] |
| < 10 | N=C(N)c1cccc(CC(NS(=O)(=O)c2ccccc2)c2nc3cnccc3s2)c1 (stereo not drawn) [Compound 18, 3-(2-Benzenesulfonamido-2-{[1,3]thiazolo[4,5-c]pyridin-2-yl}ethyl)benzene-1-carboximidamide] |
| < 10 | N=C(N)c1cccc(CC(NS(=O)(=O)c2ccccc2)c2nc3cccnc3s2)c1 (stereo not drawn) [Compound 19, 3-(2-Benzenesulfonamido-2-{[1,3]thiazolo[5,4-b]pyridin-2-yl}ethyl)benzene-1-carboximidamide] |
| > 10 | CN(C)CCN(C)c1cccc2nc(C(Cc3cccc(C(=N)N)c3)NS(=O)(=O)c3ccccc3)sc12 (stereo not drawn) [Compound 16, 3-[2-Benzenesulfonamido-2-(7-{[2-(dimethylamino)ethyl](methyl)amino}-1,3-benzothiazol-2-yl)ethyl]benzene-1-carboximidamide] |
| < 10 | N=C(N)c1cccc(CC(NS(=O)(=O)c2ccccc2)c2nc3ccc(O)cc3s2)c1 (stereo not drawn) [Compound 20, 3-[2-(benzenesulfonamido)-2-(6-hydroxy-1,3-benzothiazol-2-yl)ethyl]benzamidine] |
| < 10 | N=C(N)c1cccc(CC(NS(=O)(=O)c2cccc(-c3ccc(Cl)cc3Cl)c2)c2nccs2)c1 (single isomer, unassigned) [Compound 5 (Isomer 2), 3-[2-{2′,4′-Dichloro-[1,1′-biphenyl]-3-sulfonamido}-2-(1,3-thiazol-2-yl)ethyl]benzene-1-carboximidamide] |
| > 10 | N=C(N)c1cccc(CC(NS(=O)(=O)c2ccccc2)c2nc3cc(C(F)(F)F)ccc3s2)c1 (single isomer, unassigned) [12 (enantiomer 1), 3-{2-Benzenesulfonamido-2-[5-(trifluoromethyl)-1,3-benzothiazol-2-yl]ethyl}benzene-1-carboximidamide] |
| < 10 | COCCN(C)c1cccc2nc(C(Cc3cccc(C(=N)N)c3)NS(=O)(=O)c3ccccc3)sc12 (stereo not drawn) [Compound 17, 3-(2-Benzenesulfonamido-2-{7-[(2-methoxyethyl)(methyl)amino]-1,3-benzothiazol-2-yl}ethyl)benzene-1-carboximidamide] |
| > 10 | N=C(N)c1cccc(CC(NS(=O)(=O)c2cccc(Br)c2)c2nccs2)c1 (stereo not drawn) [Compound 4, 3-[2-(3-Bromobenzenesulfonamido)-2-(1,3-thiazol-2-yl)ethyl]benzene-1-carboximidamide] |

| Structure (SMILES) | IC50 [µM] |
| --- | --- |
| N=C(N)c1cccc(CC(NS(=O)(=O)c2cccc(-c3ccc(Cl)cc3Cl)c2)c2nc3ccccc3s2)c1 (single isomer, unassigned) [3 (enantiomer 1), 3-[2-(1,3-Benzothiazol-2-yl)-2-{2′,4′-dichloro-[1,1′-biphenyl]-3-sulfonamido}ethyl]benzene-1-carboximidamide] | > 10 |
| N=C(N)c1cccc(CC(NS(=O)(=O)c2cccc(-c3ccc(Cl)cc3Cl)c2)c2nc3ccccc3s2)c1 (single isomer, unassigned) [3 (enantiomer 2), 3-[2-(1,3-Benzothiazol-2-yl)-2-{2′,4′-dichloro-[1,1′-biphenyl]-3-sulfonamido}ethyl]benzene-1-carboximidamide] | < 10 |
| N=C(N)c1cccc(CC(NS(=O)(=O)c2ccccc2)c2nc3ccccc3s2)c1 (single isomer, unassigned) [Compound 1 (enantiomer 2, batch 1), 3-[2-Benzenesulfonamido-2-(1,3-benzothiazol-2-yl)ethyl]benzene-1-carboximidamide] | < 10 |
| COc1ccc2nc(C(Cc3cccc(C(=N)N)c3)NS(=O)(=O)c3ccccc3)sc2c1 (stereo not drawn) [Compound 8, 3-[2-Benzenesulfonamido-2-(6-methoxy-1,3-benzothiazol-2-yl)ethyl]benzene-1-carboximidamide] | < 10 |
| COc1ccc2nc(C(Cc3cccc(C(=N)N)c3)NS(=O)(=O)c3ccccc3)sc2c1 (single isomer, unassigned) [11 (enantiomer 2), 3-[2-Benzenesulfonamido-2-(6-methoxy-1,3-benzothiazol-2-yl)ethyl]benzene-1-carboximidamide] | < 10 |
| N=C(N)c1cccc(CC(NS(=O)(=O)c2ccccc2)c2nc3ccccc3s2)c1 (single isomer, unassigned) [Compound 1 (enantiomer 1, batch 1), 3-[2-Benzenesulfonamido-2-(1,3-benzothiazol-2-yl)ethyl]benzene-1-carboximidamide] | > 10 |
| COc1ccc2nc(C(Cc3cccc(C(=N)N)c3)NS(=O)(=O)c3ccccc3)sc2c1 (single isomer, unassigned) [11 (enantiomer 1), 3-[2-Benzenesulfonamido-2-(6-methoxy-1,3-benzothiazol-2-yl)ethyl]benzene-1-carboximidamide] | > 10 |
